Legend:
Japanese bulrush [1] = assay: Test Example 1: herbicidal activity, application before weed generation under submerged conditions (Table 16, symbol B); format: in vivo, Japanese bulrush (Schoenoplectus juncoides); conditions: amount of applied herbicide 320 g/ha
In short: (§1)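 Emulsion formulation, water-diluted to set dose, was put onto the flooded surface (4 cm depth, alluvial soil) the same day weeds were sown and 2.5-leaf rice transplanted. After 3 weeks at 25-30 °C under glass, each species was rated 0 (≤5% kill) to 5 (≥90% kill).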

oval-leafed pondweed = assay: Test Example 1: herbicidal activity, application before weed generation under submerged conditions (Table 16, symbol C); format: in vivo, oval-leafed pondweed (Monochoria vaginalis); conditions: amount of applied herbicide 320 g/ha
In short: as §1

late watergrass = assay: Test Example 2: herbicidal activity, application during weed generation under submerged conditions (Table 17, symbol A); format: in vivo, late watergrass (Echinochloa oryzicola); conditions: AAH 320 g/ha; application during weed generation, submerged conditions
In short: (§2)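 Alluvial soil in Wagner pots was flooded to 4 cm depth and sown with the three weeds together; pots were kept in a greenhouse at 25° C. to 30° C. At the one to two leaf stage, an emulsion formulation diluted in water to a set rate went onto the water surface; scored three weeks later.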

Japanese bulrush [2] = assay: Test Example 2: herbicidal activity, application during weed generation under submerged conditions (Table 17, symbol B); format: in vivo, Japanese bulrush (Schoenoplectus juncoides); conditions: AAH 320 g/ha; application during weed generation, submerged conditions
In short: as §2

barnyard grass [3] = assay: Test Example 3: herbicidal effect by foliage application, Wagner pot (Table 18, symbol H); format: in vivo, barnyard grass (Echinochloa crus-galli)
In short: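 Plants were sown in alluvial soil held under 0.1–0.5 cm standing water and grown 14 days in a greenhouse at 25–30 °C. An emulsifiable formulation, water-diluted to the set dose, was then sprayed onto the foliage, and effects were scored three weeks later using previously defined criteria.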

southern crabgrass [4] = assay: Test Example 4: herbicidal effect by soil treatment (Table 19, symbol F); format: in vivo, southern crabgrass (Digitaria ciliaris); conditions: amount of applied herbicide 320 g/ha
In short: (§3)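 Step 1: sow seeds in sterilized diluvial soil, cover ~1.5 cm. Step 2: spray diluted emulsion onto soil surface at predetermined rate. Step 3: greenhouse, 25–30° C, three weeks. Step 4: grade effect on each plant by earlier criteria.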

barnyard grass [5] = assay: Test Example 4: herbicidal effect by soil treatment (Table 19, symbol H); format: in vivo, barnyard grass (Echinochloa crus-galli); conditions: amount of applied herbicide 320 g/ha
In short: as §3

blackgrass [6] = assay: Test Example 4: herbicidal effect by soil treatment (Table 19, symbol J); format: in vivo, blackgrass (Alopecurus myosuroides); conditions: amount of applied herbicide 320 g/ha
In short: as §3

redroot pigweed [7] = assay: Test Example 4: herbicidal effect by soil treatment (Table 19, symbol N); format: in vivo, redroot pigweed (Amaranthus retroflexus); conditions: amount of applied herbicide 320 g/ha
In short: as §3

chickweed = assay: Test Example 4: herbicidal effect by soil treatment (Table 19, symbol P); format: in vivo, common chickweed (Stellaria media); conditions: amount of applied herbicide 320 g/ha
In short: as §3

southern crabgrass [8] = assay: Test Example 5: herbicidal effect by foliage application, plastic box (Table 20, symbol F); format: in vivo, southern crabgrass (Digitaria ciliaris); conditions: for herbicidal effect on southern crabgrass (F): three weeks after application
In short: (§4)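 Foliar spray test: emulsion formulation diluted in water to a set application rate, sprayed onto 14-day-old plants raised in diluvial soil at 25° C to 30° C under glass. Both herbicidal effect and crop effect rated visually three weeks later.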

green foxtail = assay: Test Example 5: herbicidal effect by foliage application, plastic box (Table 20, symbol G); format: in vivo, green foxtail (Setaria viridis); conditions: for herbicidal effect on green foxtail (G): three weeks after application
In short: as §4

wild oat = assay: Test Example 5: herbicidal effect by foliage application, plastic box (Table 20, symbol I); format: in vivo, wild oat (Avena fatua); conditions: for herbicidal effect on wild oat (I): three weeks after application
In short: as §4

redroot pigweed [9] = assay: Test Example 5: herbicidal effect by foliage application, plastic box (Table 20, symbol N); format: in vivo, redroot pigweed (Amaranthus retroflexus); conditions: evaluated three weeks after application
In short: as §4

lambsquarters = assay: Test Example 5: herbicidal effect by foliage application, plastic box (Table 20, symbol O); format: in vivo, lambsquarters (Chenopodium album); conditions: for herbicidal effect on lambsquarters (O): three weeks after application
In short: as §4

persian speedwell = assay: Test Example 5: herbicidal effect by foliage application, plastic box (Table 20, symbol R); format: in vivo, Persian speedwell (Veronica persica); conditions: for herbicidal effect on persian speedwell (R): three weeks after application
In short: as §4

blackgrass [10] = assay: Test Example 5: herbicidal effect by foliage application, plastic box (Table 20, symbol J); format: in vivo, blackgrass (Alopecurus myosuroides); conditions: foliage application; for herbicidal effect on blackgrass (J): 320 g/ha, three weeks after application
In short: as §4

[11] = 320 g/ha, foliage application after 14-day growth, evaluated three weeks after application
[12] = amount of applied herbicide 320 g/ha
[13] = foliage application, AAH 320 g/ha, evaluated three weeks after application

Structure (SMILES)	Herbicidal effect, B: Japanese bulrush (Japanese bulrush [1])	Herbicidal effect, C: oval-leafed pondweed (oval-leafed pondweed)	herbicidal effect rating, A: late watergrass (late watergrass)	herbicidal effect rating, B: Japanese bulrush (Japanese bulrush [2])	Herbicidal effect on H (barnyard grass), foliage application (barnyard grass [3]; [12])	F: southern crabgrass, herbicidal effect grade (southern crabgrass [4])	H: barnyard grass, herbicidal effect grade (barnyard grass [5])	J: blackgrass, herbicidal effect grade (blackgrass [6])	N: redroot pigweed, herbicidal effect grade (redroot pigweed [7])	P: chickweed, herbicidal effect grade (chickweed)	herbicidal effect on southern crabgrass (F) (southern crabgrass [8]; foliage application, 320 g/ha)	herbicidal effect on green foxtail (G) (green foxtail; foliage application, 320 g/ha)	herbicidal effect on wild oat (I) (wild oat; foliage application, 320 g/ha)	herbicidal effect on blackgrass (J) (blackgrass [10])	herbicidal effect on lambsquarters (O) (lambsquarters; foliage application, 320 g/ha)	herbicidal effect on persian speedwell (R) (persian speedwell; foliage application, 320 g/ha)	also measured
CCCC(=O)Oc1c(C)nn(C)c(=O)c1-c1c(-c2ccc(C#N)cc2)sc2c(F)cccc12 [4-053]	3 (Herbicidal rate of 40% or more and less than 70%)	2 (Herbicidal rate of 20% or more and less than 40%)	4 (Herbicidal rate of 70% or more and less than 90%)	2 (Herbicidal rate of 20% or more and less than 40%)													herbicidal effect on barnyard grass (H) (barnyard grass [3]; 320 g/ha): 4 (Herbicidal rate of 70% or more and less than 90%); Herbicidal effect by soil treatment, F: southern crabgrass (southern crabgrass [4]): 0 (Herbicidal rate of 5% or less (almost no effect)); Herbicidal effect by soil treatment, H: barnyard grass (barnyard grass [5]): 0 (Herbicidal rate of 5% or less (almost no effect)); Herbicidal effect by soil treatment, J: blackgrass (blackgrass [6]): 0 (Herbicidal rate of 5% or less (almost no effect)); Herbicidal effect by soil treatment, N: redroot pigweed (redroot pigweed [7]): 5 (Herbicidal rate of 90% or more (almost completely withered)); Herbicidal effect by soil treatment, P: chickweed (chickweed): 4 (Herbicidal rate of 70% or more and less than 90%); herbicidal effect on F: southern crabgrass (evaluation grade 0-5) (southern crabgrass [8]; [11]): 0 (Herbicidal rate of 5% or less (almost no effect)); herbicidal effect on G: green foxtail (evaluation grade 0-5) (green foxtail; [11]): 0 (Herbicidal rate of 5% or less (almost no effect)); herbicidal effect on I: wild oat (evaluation grade 0-5) (wild oat; [11]): 2 (Herbicidal rate of 20% or more and less than 40%); herbicidal effect on N: redroot pigweed (evaluation grade 0-5) (redroot pigweed [9]; 320 g/ha, foliage application after 14-day growth): 5 (Herbicidal rate of 90% or more (almost completely withered)); herbicidal effect on O: lambsquarters (evaluation grade 0-5) (lambsquarters; [11]): 4 (Herbicidal rate of 70% or more and less than 90%); herbicidal effect on R: persian speedwell (evaluation grade 0-5) (persian speedwell; [11]): 5 (Herbicidal rate of 90% or more (almost completely withered))
Cc1nn(C)c(=O)c(-c2c(-c3cnccc3C(F)(F)F)sc3ccc(F)cc23)c1O [2-387]	3 (Herbicidal rate of 40% or more and less than 70%)	0 (Herbicidal rate of 5% or less (almost no effect))	4 (Herbicidal rate of 70% or more and less than 90%)	4 (Herbicidal rate of 70% or more and less than 90%)													herbicidal effect on H: barnyard grass (barnyard grass [3]; [12]): 5 (Herbicidal rate of 90% or more (almost completely withered)); herbicidal effect, F: southern crabgrass (southern crabgrass [4]): 3 (Herbicidal rate of 40% or more and less than 70%); herbicidal effect, J: blackgrass (blackgrass [6]): 0 (Herbicidal rate of 5% or less (almost no effect)); herbicidal effect, N: redroot pigweed (redroot pigweed [7]): 5 (Herbicidal rate of 90% or more (almost completely withered)); herbicidal effect, P: chickweed (chickweed): 4 (Herbicidal rate of 70% or more and less than 90%); F: southern crabgrass, herbicidal effect (criteria 0-5) (southern crabgrass [8]; [13]): 4 (Herbicidal rate of 70% or more and less than 90%); G: green foxtail, herbicidal effect (criteria 0-5) (green foxtail; [13]): 3 (Herbicidal rate of 40% or more and less than 70%); I: wild oat, herbicidal effect (criteria 0-5) (wild oat; [13]): 4 (Herbicidal rate of 70% or more and less than 90%); J: blackgrass, herbicidal effect (criteria 0-5) (blackgrass [10]; AAH 320 g/ha, evaluated three weeks after application): 4 (Herbicidal rate of 70% or more and less than 90%); N: redroot pigweed, herbicidal effect (criteria 0-5) (redroot pigweed [9]; foliage application, AAH 320 g/ha): 5 (Herbicidal rate of 90% or more (almost completely withered)); O: lambsquarters, herbicidal effect (criteria 0-5) (lambsquarters; [13]): 5 (Herbicidal rate of 90% or more (almost completely withered)); R: persian speedwell, herbicidal effect (criteria 0-5) (persian speedwell; [13]): 5 (Herbicidal rate of 90% or more (almost completely withered))
CCCC(=O)Oc1c(C)nn(C)c(=O)c1-c1c(-c2ccc3c(c2)OCCO3)oc2ccc(C)cc12 [9-013]	4 (Herbicidal rate of 70% or more and less than 90%)	4 (Herbicidal rate of 70% or more and less than 90%)	0 (Herbicidal rate of 5% or less (almost no effect))	0 (Herbicidal rate of 5% or less (almost no effect))	1 (Herbicidal rate of 5% or more and less than 20%)	4 (Herbicidal rate of 70% or more and less than 90%)	1 (Herbicidal rate of 5% or more and less than 20%)	0 (Herbicidal rate of 5% or less (almost no effect))	3 (Herbicidal rate of 40% or more and less than 70%)	0 (Herbicidal rate of 5% or less (almost no effect))	0 (Herbicidal rate of 5% or less (almost no effect))	0 (Herbicidal rate of 5% or less (almost no effect))	0 (Herbicidal rate of 5% or less (almost no effect))	0 (Herbicidal rate of 5% or less (almost no effect))	3 (Herbicidal rate of 40% or more and less than 70%)	5 (Herbicidal rate of 90% or more (almost completely withered))	
Cc1nn(C)c(=O)c(-c2c(-c3ccc4c(c3)OCCO4)oc3ccccc23)c1O [8-002]	5 (Herbicidal rate of 90% or more (almost completely withered))	4 (Herbicidal rate of 70% or more and less than 90%)	3 (Herbicidal rate of 40% or more and less than 70%)	4 (Herbicidal rate of 70% or more and less than 90%)	4 (Herbicidal rate of 70% or more and less than 90%)	3 (Herbicidal rate of 40% or more and less than 70%)	3 (Herbicidal rate of 40% or more and less than 70%)	0 (Herbicidal rate of 5% or less (almost no effect))	2 (Herbicidal rate of 20% or more and less than 40%)	5 (Herbicidal rate of 90% or more (almost completely withered))	1 (Herbicidal rate of 5% or more and less than 20%)	3 (Herbicidal rate of 40% or more and less than 70%)	2 (Herbicidal rate of 20% or more and less than 40%)	0 (Herbicidal rate of 5% or less (almost no effect))	0 (Herbicidal rate of 5% or less (almost no effect))	5 (Herbicidal rate of 90% or more (almost completely withered))	
